Measured values reported in patent US20260317314A1, “NITROGEN-CONTAINING HETEROCYCLIC COMPOUND AND USE THEREOF” (JIANGSU DEYUAN PHARMACEUTICAL CO.,LTD., priority 2023, published 2026).
One block for each molecule: values may come before it.

Legend:
[1] = Permeability test in MDR1-MDCKII monolayer cell model; format: in vitro ADME; conditions: dog; for efflux ratio at 2.5 h, 2 µM: MDCK-MDR1, pH 7.4, ER=Papp(BA)/Papp(AB); for Papp A→B at 2.5 h, 2 µM: MDCK-MDR1, pH 7.4, pH 7.40, 2.5 hours, 37±1° C., read-out: Apparent permeability coefficient (Papp (AB))
Method: Experimental objective: The permeability and efflux ratio of the compound of the present disclosure were determined using the MDR1-MDCKII monolayer cell model to assess its membrane permeability and potential for P-gp-mediated efflux transport.
Experimental protocol: MDR1-MDCKII cells (obtained from the Netherlands Cancer Institute) were seeded in 96-well plates (obtained from Corning) at a cell density of 3.33×10^5 cells/mL and cultured for 4 to 7 days to form confluent cell monolayers. Hank's balanced salt solution containing 10 mM HEPES (pH 7.40) was used as the transport buffer. The test compound was evaluated for bidirectional transport at a concentration of 2 μM, with the DMSO concentration in the incubation system maintained below 1%. After adding the samples, the cell plate was incubated at 37±1° C., 5% CO2, and saturated humidity for 2.5 hours. All samples were quantitatively analyzed using the LC-MS/MS method. The apparent permeability coefficient (Papp, cm/s) and efflux ratio (ER) were calculated using the following formula. Apparent permeability coefficient (Papp, cm/s) was calculated using the following formula: Papp=(dCr/dt)×Vr/(A×C0). Herein, dCr/dt represents the cumulative concentration of the compound at the receiving end per unit time (μM/s); Vr is the volume of the solution at the receiving end (with solution volumes at the apical and basolateral ends being 0.075 mL and 0.250 mL, respectively); A is the relative surface area of the cell monolayer (0.143 cm^2); C0 is the initial concentration of the test substance at the dosing end (μM) or the peak area ratio of the reference substance. The efflux ratio was calculated using the following formula: ER=Papp(BA)/Papp(AB).

[2] = In vivo pharmacokinetic study in cynomolgus monkeys; set-up: species or system cynomolgus monkey; conditions: male cynomolgus monkeys
[3] = In vitro liver microsome metabolic stability study; format: in vitro ADME; conditions: human liver microsomes 0.5 mg/mL, compound 1 μM, 37° C., up to 60 minutes; read-out: Intrinsic hepatic clearance CLint(liver)
Method: Stock solution: 10 mM in DMSO.
Only 54 μL of microsomal working solution, 6 μL of NADPH regeneration system working solution, and 180 μL of stop solution were added to the blank plate.
LC-MS/MS analysis was performed.

[4] = Plasma protein binding rate test, cynomolgus monkey (equilibrium dialysis); format: in vitro ADME; conditions: 37° C., read-out: Plasma protein binding rate (%) in cynomolgus monkeys (converted)
Excerpt: (§1) The sample was thoroughly mixed.

[5] = Plasma protein binding rate test, human (equilibrium dialysis); format: in vitro ADME; conditions: 37° C.
Excerpt: as §1

[6] = Plasma protein binding rate test, SD rat (equilibrium dialysis); format: in vitro ADME; conditions: 37° C., read-out: Plasma protein binding rate (%) in SD rats (converted)
Excerpt: as §1

[7] = In vivo pharmacokinetics study in rats; set-up: species or system SD rat; conditions: male SD rats, oral 2 mg/kg; for AUC(0-t) at 24 h: read-out: AUC0-24 h
plasma protein [8] = experiment: Plasma protein binding rate test, cynomolgus monkey (equilibrium dialysis); format: in vitro ADME; conditions: 37° C., 4 hours
Excerpt: as §1

plasma protein [9] = experiment: Plasma protein binding rate test, human (equilibrium dialysis); format: in vitro ADME; conditions: 37° C., 4 hours
Excerpt: as §1

human CYP11B2 = target: T1, human CYP11B2 (Homo sapiens, UniProt P19099); experiment: In vitro activity assay of monoclonal cells overexpressing human CYP11B2; format: cell-based; conditions: G402 cells overexpressing human CYP11B2; substrate 11-deoxycorticosterone; 16 hours; aldosterone by LCMS/MS
T1 construct: expressed in transfected cells; host or cells: human renal leiomyoma G402 cell line (monoclonal cells overexpressing human CYP11B2)
T1 sequence (P19099 25-503): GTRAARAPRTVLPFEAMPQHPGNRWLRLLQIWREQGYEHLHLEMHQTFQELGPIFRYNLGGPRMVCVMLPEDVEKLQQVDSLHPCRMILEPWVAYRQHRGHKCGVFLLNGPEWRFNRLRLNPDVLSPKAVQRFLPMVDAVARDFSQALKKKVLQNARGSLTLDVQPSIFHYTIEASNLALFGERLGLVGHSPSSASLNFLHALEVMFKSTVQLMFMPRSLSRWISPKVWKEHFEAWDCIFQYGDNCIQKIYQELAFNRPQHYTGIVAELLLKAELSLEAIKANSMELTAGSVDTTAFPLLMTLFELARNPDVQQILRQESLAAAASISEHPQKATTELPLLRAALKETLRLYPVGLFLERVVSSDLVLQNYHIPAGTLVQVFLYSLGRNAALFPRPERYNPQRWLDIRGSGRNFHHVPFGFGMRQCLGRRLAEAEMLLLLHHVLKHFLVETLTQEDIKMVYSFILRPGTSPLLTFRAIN
Method: The human renal leiomyoma G402 cell line overexpressing human CYP11B2 was selected to serve as a compound activity screening system.
• 2) Compound details: The test compound was prepared as a 10 μM working concentration using DMSO.
Day 1: Cells were digested, and human renal leiomyoma G402 cells overexpressing human CYP11B2 were resuspended to 1×10^5 cells/mL, with 100 μL seeded into a 96-well plate.
Day 2: The medium was replaced with DMEM/F12 containing 2.5% charcoal-stripped fetal bovine serum; test compounds were added: 5 μL of test compound was added to the cell culture medium to achieve final concentrations of 10000, 2500, 625, 156.25, 39.06, 9.77, 2.44, 0.61, 0.15, and 0 nM (with a DMSO content of 0.1%).
After one hour, the substrate was added: 30 mM 11-deoxycorticosterone was diluted 1500-fold with culture medium, and 5 μL was dispensed per well to achieve a final concentration of […], followed by incubation for 16 hours.
Day 3: The cell supernatant was collected and added to 200 μL of a methanol solution containing internal standards (internal standards: 35 ng/mL ketoprofen or 7.5 ng/mL carbamazepine or 5 ng/mL diphenhydramine or 10 ng/mL tolbutamide). The mixture was vortexed and centrifuged (4000×g, 4° C., 5 minutes). Then, 100 μL of the supernatant was taken and mixed with 100 μL of pure water. The mixture was centrifuged (4000 g, 4° C., 15 min), and the supernatant was analyzed by ESI-LCMS/MS. • 4) Data analysis:
Ratio=Aldosterone peak area/Internal standard peak area
Control activity %=(Ratio test compound/Ratio DMSO)×100%
“Ratio test compound” represents the Ratio values at different concentrations of the test compound.
“Ratio DMSO” represents the Ratio value without the addition of the test compound. • X=Log (compound concentration) • Y=Control activity %
The IC50 of the test compound was determined by fitting to a nonlinear regression equation using XLfit 5.5.0.

[10] = system: patients with refractory hypertension; conditions: cited from earlier work
[11] = cynomolgus monkey, plasma, oral 3 mg/kg
[12] = 2 mg dose, patients with refractory hypertension

- efflux ratio at 2.5 h, 2 µM [1]: 1.76
- Papp A→B at 2.5 h, 2 µM [1]: 17.2 ×10⁻⁶ cm/s
- bioavailability [2, 11]: 120%
- half-life [2, 11]: 4.99 h
- Cmax ([2]; cynomolgus monkey, oral 3 mg/kg, plasma): 4 µM
- AUC(0-t) at 24 h ([2]; cynomolgus monkey, oral 3 mg/kg, plasma, read-out: AUC0-24 h): 23.2 µM·h
- CLint scaled at 1 µM [3]: < 8.6 mL/min/kg
- fraction unbound at 4 h [4]: 0.254
- fraction unbound at 4 h [5]: 0.239
- fraction unbound at 4 h [6]: 0.079
- bioavailability ([7]; rat, plasma): 80%
- half-life ([7]; rat, plasma): 4.61 h
- Cmax ([7]; rat, plasma): 7.63 µM
- AUC(0-t) at 24 h ([7]; rat, plasma): 59.1 µM·h
Compound: CCC(=O)N[C@@H]1CCCc2c(-c3ccc4c(ccc(=O)n4C)c3)cncc21 (single isomer, unassigned) [Compound 001]

- efflux ratio at 2.5 h, 2 µM [1]: 0.7
- Papp A→B at 2.5 h, 2 µM [1]: 23.1 ×10⁻⁶ cm/s
- fraction unbound at 4 h [4]: 0.127
- fraction unbound at 4 h [5]: 0.106
- fraction unbound at 4 h [6]: 0.102
- bioavailability ([7]; rat, plasma): 111%
- half-life ([7]; rat, plasma): 2.77 h
- Cmax ([7]; rat, plasma): 1.31 µM
- AUC(0-t) at 24 h ([7]; rat, plasma): 7.8 µM·h
Compound: CCC(=NOC)NC1CCCc2c(-c3ccc4c(c3)CCC(=O)N4C)cncc21 (single isomer, unassigned) [Compound 005]

Compound: Cc1noc(C)c1C(=O)N[C@@H]1CCCc2c(-c3cc4ccc(=O)n(C)c4cc3F)cncc21 (single isomer, unassigned) [Compound 020]
- Plasma protein binding rate (%) in cynomolgus monkeys (plasma protein [8]): 90.3%
- Human plasma protein binding rate (%) (plasma protein [9]): 85.6%

Compound: CCC(=O)NC1CCCc2c(-c3cc4ccc(=O)n(C)c4s3)cncc21 (single isomer, unassigned) [Compound 023]
- F ([2]; oral 1 mg/kg): 76.5%
- T1/2 ([2]; oral 1 mg/kg): 4.80 h
- AUC0-24 h ([2]; oral 1 mg/kg, plasma): 8.916 µM·h
- Cmax ([2]; oral 1 mg/kg, plasma): 1.32 µM
- Plasma protein binding rate (%) in cynomolgus monkeys (plasma protein [8]): 69.0%
- Human plasma protein binding rate (%) (plasma protein [9]): 69.6%
- F [7]: 109%
- T1/2 [7]: 3.6 h
- AUC0-24 h ([7]; plasma): 44.234 µM·h
- Cmax ([7]; plasma): 6.92 µM

- IC50 (human CYP11B2): 62.7 nM
Compound: CCC(=O)N[C@@H]1CCCc2c(-c3ccc4c(c3)c(C)cc(=O)n4C)cncc21 (single isomer, unassigned) [Compound 027]

- efflux ratio at 2.5 h, 2 µM [1]: 0.89
- Papp A→B at 2.5 h, 2 µM [1]: 20 ×10⁻⁶ cm/s
- CLint scaled at 1 µM [3]: < 8.6 mL/min/kg
- fraction unbound at 4 h [4]: 0.203
- fraction unbound at 4 h [5]: 0.193
Compound: CCC(=O)NC1CCCc2c(-c3cc(F)c4c(c3)OCC(=O)N4C)cncc21 (single isomer, unassigned) [Compound 031]

- efflux ratio at 2.5 h, 2 µM [1]: 0.86
- Papp A→B at 2.5 h, 2 µM [1]: 22.6 ×10⁻⁶ cm/s
- CLint scaled at 1 µM [3]: < 8.6 mL/min/kg
- fraction unbound at 4 h [4]: 0.205
- fraction unbound at 4 h [5]: 0.151
Compound: CCC(=O)NC1CCCc2c(-c3cc4c(cc3F)N(C)C(=O)CO4)cncc21 (single isomer, unassigned) [Compound 032]

- efflux ratio at 2.5 h, 2 µM [1]: 1.3
- Papp A→B at 2.5 h, 2 µM [1]: 16.7 ×10⁻⁶ cm/s
- fraction unbound at 4 h [4]: 0.32
- fraction unbound at 4 h [5]: 0.239
Compound: CCC(=O)NC1CCOc2c(-c3cc4ccc(=O)n(C)c4s3)cncc21 (single isomer, unassigned) [Compound 045]

Compound: CCC(=O)N[C@@H]1CCCc2c(-c3ccc4c(c3)CCC(=O)N4C)cncc21 [Baxdrostat]
- office systolic and diastolic blood pressure [10, 12]: efficacy in reducing office systolic and diastolic blood pressure
- safety and tolerability [10, 12]: favorable safety and tolerability profiles
- aldosterone secretion levels ([10]; clinical studies): dose-dependent reduction
- blood pressure ([10]; clinical studies): dose-dependent reduction
- blood pressure reduction ([10]; phase 2 trials): significant blood pressure reduction
- cortisol levels ([10]; phase 2 trials): no impact on cortisol levels
- elevated blood potassium ([10]; phase 2 trials): rare occurrence of elevated blood potassium
- steroid precursor accumulation ([10]; phase 2 trials): absence of steroid precursor accumulation
